16 molecules from patent US6534524B1, “Indazole compounds and pharmaceutical compositions for inhibiting protein kinases, and methods for their use” (Agouron Pharmaceuticals, Inc., priority 1999, dated 2003) can be followed below.

Where two headings read alike, the source gives them in different places. Marks after values point to notes of the source that are not given here. Bounds are passed on as bounds.

The term IC50 denotes the concentration at which inhibition is half-maximal. In general, Cmax refers to the peak of the concentration-time curve. The Ki is a measure of affinity in units of concentration, obtained from inhibition or displacement. As a reminder, the AUC(0-t) is exposure summed from dosing to a finite time, without extrapolation to infinity. A high value points to high exposure.

Series [1] has as its system human umbilical vein endothelial cells (HUVEC). Description: HUVEC proliferation assay (VEGF-stimulated, MTT). The class given is cell-based. Particulars: Homo sapiens, HUVEC; read-out: HUVEC IC50.
Series [2] can be described thus: Human liver microsome (HLM) assay. The class given is in vitro ADME. Particulars: human liver microsomes, 5 μM test compound. As to the method: Human Liver Microsome (HLM) Assay Compound metabolism in human liver microsomes was measured by LC-MS analytical assay procedures as follows. […] (3 tubes per test compound-triplicate). […] The samples were then transferred to separate polypropylene microcentrifuge tubes and centrifuged at 14000 g for 10 min. (Fisher Micro […] M0017580). For each replicate (#1-3) at each timepoint (0 and 2 h), an aliquot sample of each test compound was combined into a single HPLC vial insert (6 total samples) for LC-MS analysis, which is described below.
(Microsomes from liver hold many membrane-bound enzymes, among them those of drug oxidation.)

A short description of series [3]: Determination of inhibitor concentration in mouse plasma after intraperitoneal and oral dosing. The class given is in vivo. Conditions: for concentration at 7 h / AUC(0-t): female. An outline of the steps: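 Plasma levels quantified by HPLC or LC-MS using a standard curve prepared in mouse plasma, following ethyl acetate extraction with internal standard and sodium hydroxide. Sampling at 0.5, 1, 4 h (ocular bleed) and 7 h (cardiac puncture) after oral or intraperitoneal dosing.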

The target in series [4] is unphosphorylated VEGF-R2Δ50 (FLVK) (Homo sapiens, UniProt P35968, DEL940-989/E990V). As to the kind of experiment: VEGF-R2 coupled spectrophotometric assay, unphosphorylated VEGF-R2Δ50 (FLVK). Particulars: FLVK Ki, Table 1.
Where [5] appears, read: IP, 25 mg/kg, vehicle PEG400:H2O pH 2.3 30:70.
Setting [6] is: PO, 50 mg/kg, vehicle PEG400:H2O pH 2.3 30:70.
Where [7] appears, read: IP, 25 mg/kg, vehicle PEG400:H2O pH 2.3 30:70, read-out: Cmin (7 hr conc.).
The mark [8] stands for this setting: PO, 50 mg/kg, vehicle PEG400:H2O pH 2.3 30:70, read-out: Cmin (7 hr conc.).
[9] abbreviates: IP, 25 mg/kg, vehicle PEG400:H2O pH 2.3 60:40.
Setting [10] is: PO, 50 mg/kg, vehicle PEG400:H2O pH 2.3 60:40.
Where [11] appears, read: IP, 25 mg/kg, vehicle PEG400:H2O pH 2.3 60:40, read-out: Cmin (7 hr conc.).
[12] abbreviates: PO, 50 mg/kg, vehicle PEG400:H2O pH 2.3 60:40, read-out: Cmin (7 hr conc.).
The mark [13] stands for this setting: PO, 25 mg/kg, vehicle PEG400:H2O pH 2.3 30:70.
The mark [14] stands for this setting: PO, 25 mg/kg, vehicle PEG400:H2O pH 2.3 30:70, read-out: Cmin (7 hr conc.).

Chain of unphosphorylated VEGF-R2Δ50 (FLVK) (P35968 with tags, fused parts or gaps DEL940-989/E990V limits assumed): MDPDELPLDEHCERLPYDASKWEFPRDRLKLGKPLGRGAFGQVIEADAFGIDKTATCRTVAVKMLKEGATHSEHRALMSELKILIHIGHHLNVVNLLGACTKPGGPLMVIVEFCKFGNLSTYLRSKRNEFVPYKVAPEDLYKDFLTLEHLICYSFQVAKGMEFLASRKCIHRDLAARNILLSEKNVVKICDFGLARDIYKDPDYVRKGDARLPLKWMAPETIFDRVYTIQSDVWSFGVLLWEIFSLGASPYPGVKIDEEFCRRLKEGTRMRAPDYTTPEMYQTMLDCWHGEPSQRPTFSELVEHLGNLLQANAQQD

As for `C[C@@H]1C[C@H]1C(=O)Nc1cccc(C(=O)c2ccc3c(/C=C/c4ccccn4)n[nH]c3c2)c1` (racemic) [Example 41(h), 6-[3-((2-RS-trans-Methylcyclopropyl)carboxamido)benzoyl]-3-E-[2-(pyridin-2-yl)ethenyl]-1H-indazole], in series [1], the IC50 was 2 nM. Besides, the “% remain (HLM, 2 h)” value in series [2] turned out to be 8%. Further, in series [3] (setting [5]), the AUClast was 26911 ng·h/mL, the Cmax came to 16005 ng/mL and the “plasma half-life (T1/2)” value is 1.2 h. Besides, in series [3] (setting [6]), the AUClast is 4677 ng·h/mL, the Cmax worked out at 4080 ng/mL and the “plasma half-life (T1/2)” value is 0.7 h. In addition, the concentration at 7 h in series [3] (setting [7]) worked out at 300 ng/mL. In addition, the concentration at 7 h in series [3] (setting [8]) came out at 7 ng/mL.

As to `O=C(Nc1cccc(C(=O)c2ccc3c(/C=C/c4ccccc4)n[nH]c3c2)c1)c1ccncc1` [Example 19(j), 6-[3-(Pyridin-4-ylcarboxamido)benzoyl]-3-E-styryl-1H-indazole], the Ki in series [4] was 0.33 nM. Further, in series [2], the “% remain (HLM, 2 h)” value is 66%. Further, the results for the AUClast in series [3] (setting [9]) and in series [3] (setting [10]) were 23205 ng·h/mL and 5889 ng·h/mL, respectively. Moreover, the Cmax in series [3] (setting [9]) was determined as 5764 ng/mL; in series [3] (setting [10]), 1937 ng/mL. The entries for the “plasma half-life (T1/2)” value in series [3] (setting [9]) and in series [3] (setting [10]) were 1.6 h and 1.2 h, respectively. Further, the concentration at 7 h in series [3] (setting [11]) worked out at 456 ng/mL; in series [3] (setting [12]), 63 ng/mL.

On to `Cc1cc(C(=O)Nc2cccc(C(=O)c3ccc4c(/C=C/c5ccccn5)n[nH]c4c3)c2)n[nH]1` [Example 41(g), 6-[3-((5-Methyl-1H-pyrazol-3-yl)carboxamido)benzoyl]-3-E-[2-(pyridin-2-yl)ethenyl]-1H-indazole], for which the Ki in series [4] stood at 0.1 nM. For the same molecule, in series [2], the “% remain (HLM, 2 h)” value stood at 52%. For the same molecule, the AUClast in series [3] (setting [9]) is 1925 ng·h/mL; in series [3] (setting [10]), 508 ng·h/mL. Besides, the “plasma half-life (T1/2)” value stood at 0.3 h in series [3] (setting [9]) and 0.7 h in series [3] (setting [10]). Besides, the concentration at 7 h was determined as 0 ng/mL in series [3] (setting [11]) and 1 ng/mL in series [3] (setting [12]).

For `C=CCn1nc(C)cc1C(=O)Nc1cccc(C(=O)c2ccc3c(/C=C/c4ccccn4)n[nH]c3c2)c1` [Example 41(t), 6-[3-((1-Allyl-3-methyl-1H-pyrazol-5-yl)carboxamido)benzoyl]-3-E-[2-(pyridin-2-yl)ethenyl]-1H-indazole], affinity in series [4] was put at a Ki of 0.06 nM. Besides, in series [2], the “% remain (HLM, 2 h)” value is reported as 87%. Also, in series [3] (setting [13]), the “plasma half-life (T1/2)” value is 4.0 h and the AUC(0-t) is more than 22500 ng·h/mL. In series [3] (setting [14]), the concentration at 7 h turned out to be 1350 ng/mL.

The molecule `O=C(Nc1cccc(Oc2ccc3c(/C=C/c4cccs4)n[nH]c3c2)c1)c1ccccc1` [Example 30(a), 6-[3-Benzamidophenoxy]-3-E-[2-(thien-2-yl)ethenyl]-1H-indazole] came in with a Ki in series [4] of 1.7 nM. In addition, the “% remain (HLM, 2 h)” value in series [2] is 64%.

With `Cc1cccc(C(=O)Nc2cccc(N(C)c3ccc4c(/C=C/c5ccc6c(c5)OCO6)n[nH]c4c3)c2)c1` [Example 16(b), N-(3-{[3-(2-Benzo[1,3]dioxol-5-yl-vinyl)-1H-indazol-6-yl]-methyl-amino}-phenyl)-3-methyl-benzamide], affinity in series [4] was put at a Ki of 0.34 nM. In addition, the “% remain (HLM, 2 h)” value in series [2] is reported as 50%.

With `CN(c1cccc(NC(=O)c2ccccc2)c1)c1ccc2c(/C=C/c3ccc4c(c3)OCO4)n[nH]c2c1` [Example 16(a), N-(3-{[3-(2Benzo[1,3]dioxol-5-yl-vinyl)-1H-indazol-6-yl]-methyl-amino}-phenyl)-benzanide], the Ki in series [4] came out at 0.08 nM. Besides, in series [2], the “% remain (HLM, 2 h)” value is 7* %.

In series [4], `O=C(Nc1cccc(Oc2ccc3c(/C=C/c4ccccn4)n[nH]c3c2)c1)c1ccccc1` [Example 31(a), 6-[3-Benzamidophenoxy]-3-E-[2-(pyridin-2-yl)ethenyl]-1H-indazole] registered a Ki of 0.29 nM. Besides, in series [2], the “% remain (HLM, 2 h)” value was found to be 58%. The AUClast was 47538 ng·h/mL in series [3] (setting [5]) and 40863 ng·h/mL in series [3] (setting [6]). In addition, the Cmax in series [3] (setting [5]) is 13018 ng/mL; in series [3] (setting [6]) it was 14499 ng/mL. Besides, the “plasma half-life (T1/2)” value in series [3] (setting [5]) came out at 2.4 h; in series [3] (setting [6]), 1.6 h. In addition, the concentration at 7 h in series [3] (setting [7]) is 1910 ng/mL; in series [3] (setting [8]) it was 834 ng/mL.

In series [4], `Cn1ccnc1C(=O)Nc1cccc(Oc2ccc3c(/C=C/c4ccccn4)n[nH]c3c2)c1` [Example 31(e), 6-[3-((1-Methylimidazol-2-yl)carboxaniido)phenoxy]-3-E-[2-(pyridin-2-yl)ethenyl]-1H-indazole] registered a Ki of 0.02 nM. Further, in series [2], the “% remain (HLM, 2 h)” value stood at 49%. In addition, in series [3] (setting [13]), the “plasma half-life (T1/2)” value worked out at 13.1 h and the AUC(0-t) was more than 30300 ng·h/mL. The concentration at 7 h in series [3] (setting [14]) was found to be 2950 ng/mL.

As for `O=C(Nc1cccc(Nc2ccc3c(/C=C/c4ccccc4)n[nH]c3c2)c1)c1ccccc1` [Example 13, N-[3-(3-Styryl-1H-indazol-6-ylamino)-phenyl]-benzamide], in series [4], the affinity, expressed as Ki, was 1.3 nM. The “% remain (HLM, 2 h)” value in series [2] came to 69%.

For `O=C(c1cccc(NC(=O)c2cccc(Cl)n2)c1)c1ccc2c(/C=C/c3ccccc3)n[nH]c2c1` [Example 19(m), 6-[3-(6-Chloropyridin-2-ylcarboxamido)benzoyl]-3-E-styryl-1H-indazole], in series [4], the Ki stood at 0.68 nM. Moreover, the “% remain (HLM, 2 h)” value in series [2] is on record as 61%.

As for `Cc1cnc(C(=O)Nc2cccc(C(=O)c3ccc4c(/C=C/c5ccccc5)n[nH]c4c3)c2)s1` [Example 19(d), 5-Methyl-thiazole-2-carboxylic Acid[3-(3-styryl-1H-indazole-6-carbonyl)-phenyl]-amide], affinity in series [4] was put at a Ki of 0.72 nM. Besides, the “% remain (HLM, 2 h)” value in series [2] is on record as 36%.

`O=C(Nc1cccc(Oc2ccc3c(/C=C/c4ccco4)n[nH]c3c2)c1)c1ccccc1` [Example 30(c), 6-[3-Benzamidophenoxy]-3-E-[2-(fur-2-yl)ethenyl]-1H-indazole] had a Ki in series [4] of 0.83 nM. The “% remain (HLM, 2 h)” value in series [2] worked out at 54%.

`Cc1cnc(C(=O)Nc2cccc(N(C)c3ccc4c(/C=C/c5ccccc5)n[nH]c4c3)c2)s1` [Example 12(d), 5-Methyl-thiazole-2-carboxylic Acid {3-[Methyl-(3-styryl-1H-indazol-6-yl)-amino]-phenyl}-amide] came in with a Ki in series [4] of 0.39 nM. The “% remain (HLM, 2 h)” value in series [2] was 51%.

For the molecule `O=C(Nc1cccc(Oc2ccc3c(/C=C/c4ccc(Cl)cc4)n[nH]c3c2)c1)c1ccccc1` [Example 6(a), N-(3-{3-[2-(4-Chloro-phenyl)-vinyl]-1H-indazol-6-yloxy}-phenyl)-benzamide], in series [4], the Ki came to 0.74 nM. For the same molecule, in series [2], the “% remain (HLM, 2 h)” value is reported as 69* %.

Molecule `O=C(c1cccc(NC(=O)c2cccc3[nH]ccc23)c1)c1ccc2c(/C=C/c3ccccc3)n[nH]c2c1` [Example 19(f), 6-[3-(Indol-4-ylcarboxamido)benzoyl]-3-E-styryl-1H-indazole] came in with a Ki in series [4] of 0.18 nM. In series [2], the “% remain (HLM, 2 h)” value is 98%.
